Experimental data from PMC3749181, “Rapid Identification of Antifungal Compounds against Exserohilum rostratum Using High Throughput Drug Repurposing Screens” (PLoS ONE, 2013).
Read-outs that look alike come from different tables or passages of the source.

Assays:
[1] = test system: E. rostratum hyphal fragments; experiment: hyphal fragment fungicidal ATP content assay (PBS, 1536-well); format: cell-based, Exserohilum rostratum; details: for Emax / IC50: Exserohilum rostratum; for Emax / Hyphae % Max. Resp. / Hyphae % M. Res.: 46 µM Amphotericin B = 100%; for IC50: read-out: Hyphae IC50
Description: (§1) Conidia and hyphae of E. rostratum were obtained as described by Richard et al., with the following modifications. Briefly, conidia were harvested from Potato Dextrose Agar (PDA) cultured media with 0.05% Tween 80, and the conidial suspension was filtered using a Cell Strainer (100 µm, BD Falcon REF 352340). After centrifugation at 700g for 10 min, the suspension was decanted and conidia were resuspended at 1×10^5 per ml in RPMI and counted in a hemocytometer. Hyphae were harvested from yeast extract peptone dextrose (YPD) culture media with 0.05% Tween 80. Hyphal fragments were sized by vortexing 15 sec twice with 0.4 mm glassbeads, and the hyphae suspension was filtered by cheese cloth twice. […] To normalize concentrations of hyphal fragments for batch to batch consistency, carbohydrate analysis was performed by a phenol-sulfuric acid method as previously described. The final stock concentration of hyphae was adjusted to 1.0 (OD490) per 100 µl.
(§2) The ATPLite assay kit, consisting of luciferase/luciferin and detergent, was used to quantitate cellular ATP levels as a marker for cell viability (Table 1). For assay development, hyphal fragments or conidia in PBS were plated in a seeding density of 3,750, 7,500 and 15,000 cellular particles/well with a final volume of 5 µl/well using the Multidrop-Combi dispenser in white 1536-well plates. Conidia or hyphae fragments were incubated for 24 h at 37°C in a 5% CO2 humidified atmosphere. ATPLite detection reagents were added at 4 µl/well. The assay plates were incubated at room temperature for 15 minutes before reading luminescence intensity on a ViewLux plate reader (Perkin Elmer, Waltham, MA). Conidia suspended in RPMI medium were inoculated at concentrations of 62.5, 125 and 250 conidia/well with a final volume of 5 µl/well in white 1536-well plates. The conidia assay was developed and optimized in the same way as the hyphal assay.
(§3) The LOPAC library (Sigma-Aldrich) has been extensively used for HTS assay validations, [18]. The NIH Chemical Genomics Center Pharmaceutical (NPC) collection was constructed in-house through a combined effort of compound purchasing and custom synthesis and recently expanded to 4096 compounds. […] 2.5 µl/well PBS was dispensed into 1536-well plates using a Multidrop-Combi dispenser. Compound in DMSO solution was transferred in a volume of 23 nl/well using a NX-TR pintool station (WAKO Scientific Solutions, San Diego, CA). This additional PBS step for compound addition was designed to prevent the potential fungal contamination of compound libraries. The hyphal fragments in PBS were then added at 2.5 µl/well for a final seeding density of 15,000 hyphal fragments/well using the Multidrop-Combi dispenser. The final compound concentration was 46 µM in the primary screen. The assay plates were incubated for 24 h at 30°C before the detection of cellular viability with the ATP content assay. Screen of conidia was performed in a similar way except that PBS was replaced with RPMI medium and conidia were plated for a final seeding density of 250 conidia/well.
(§4) The primary screen data and curve fitting were analyzed using software developed internally at the NIH Chemical Genomics Center (NCGC). Total signals for cellular viability (100% cellular viability) were calculated from the wells with DMSO solvent and the complete cell killing (0% cellular viability) was calculated from 46 µM amphotericin B treated wells. […] All values were expressed as the mean +/− SD (n≥3).

E. rostratum conidia = experiment: conidia growth inhibition ATP content assay (RPMI, 1536-well); format: cell-based, Exserohilum rostratum; details: for IC50: read-out: Conidia IC50
Description: as §1, §2, §3, §4

SH-SY5Y cells = experiment: SH-SY5Y cytotoxicity counter-screen (ATP content assay); format: cell-based, Human; details: for SH-SY5Y % M. Res.: Inact. = no significant activity at 46 µM; for SH-SY5Y % Max. Resp.: Table 2, SH-SY5Y, inact. = no significant activity at 46 µM
Description: Human neuroblastoma SH-SY5Y cell line (Catalog No. CRL-2266) was purchased from ATCC (Manassas, VA). SH-SY5Y cell line was cultured in 175-cm^2 tissue culture flasks (Costar, Cambridge, MA) with 30 ml of growth medium at 37°C in a 5% CO2 humidified atmosphere. Growth medium was made with Dulbecco's Modified Eagle Medium: Nutrient Mixture F-12 with 10% fetal bovine serum (FBS). Growth medium was replaced every other day and cells were passed at 75% confluence.
as §2
Two small known compound libraries including the LOPAC (1280 compounds) and approved drugs (4096 compounds) were screened in parallel using the above optimized assays for hyphae and conidia in 1536-well plates (Fig. 4). […] A mammalian SH-SY5Y cell line was used in parallel as a counter-screen with the same ATP content assay kit to assess the specificity of these compounds for E. rostratum.

[2] = Table S1, Inact. = no significant activity in the primary screen, read-out: Hyphae % M. Res.
[3] = Table S1, Inact. = no significant activity in the primary screen
[4] = Table S1, 46 µM Amphotericin B = 100%, Inact. = no significant activity at 46 µM
[5] = Table S1, 46 µM Amphotericin B = 100%
[6] = Table 2, inact. = no significant activity in the primary screen
[7] = Table 2, 24 h, inact. = no significant activity in the primary screen
[8] = Exserohilum rostratum, 24 h, Table 2, 24 h, inact. = no significant activity at the highest compound concentration (46 µM)
[9] = Exserohilum rostratum, Table 2, 46 µM Amphotericin B = 100%, inact. = no significant activity at 46 µM, read-out: Conidia % Max. Resp.
[10] = Table S1, Inact. = no significant activity at the highest compound concentration (46 µM)
[11] = Exserohilum rostratum, Table S1, 46 µM Amphotericin B = 100%, Inact. = no significant activity at 46 µM, read-out: Conidia % M. Res.
[12] = Table 2, 46 µM Amphotericin B = 100%, inact. = no significant activity at 46 µM
[13] = Table 2, 24 h, inact. = no significant activity at the highest compound concentration (46 µM)
[14] = Table 2, inact. = no significant activity in the primary screen, read-out: Hyphae % Max. Resp.

| Molecule | Conidia % M. Res. (E. rostratum conidia; [4]) | SH-SY5Y % M. Res. (SH-SY5Y cells; [5]) | Hyphae % Max. Resp. [1, 6] | Hyphae IC50 [1, 7] | IC50 (E. rostratum conidia; [8]) | Emax (E. rostratum conidia; [9]) | SH-SY5Y % Max. Resp. (SH-SY5Y cells; 46 µM Amphotericin B = 100%) | SH-SY5Y % Max. Resp. (SH-SY5Y cells) | SH-SY5Y IC50 (SH-SY5Y cells; [10]) | further results |
| --- | --- | --- | --- | --- | --- | --- | --- | --- | --- | --- |
| Clc1ccc(C2(Cn3cncn3)OCCO2)c(Cl)c1 [Azaconazole] | Inact. | Inact. | – | – | – | – | – | – | – | Emax [1, 2]: 64%; IC50 [1, 3]: 46.9 µM; Conidia IC50 (E. rostratum conidia): Inact.; SH-SY5Y IC50 (SH-SY5Y cells): Inact. |
| CC(C)(C)c1cc(C=C(C#N)C#N)cc(C(C)(C)C)c1O [Tyrphostin A9] | – | – | inact. | inact. | 1.98 µM | 100% | 61% | 18.6% | – | – |
| OC(Cn1cncn1)(Cn1cncn1)c1ccc(F)cc1F [Fluconazole] | Inact. | Inact. | – | – | – | – | – | – | Inact. | Hyphae % M. Res. [1, 3]: Inact.; Hyphae IC50 [1, 3]: Inact.; activity in the hyphae assay ([1]; concentrations up to 46 µM): no activity; Conidia IC50 (E. rostratum conidia; [10]): Inact.; activity in the conidia assay (E. rostratum conidia; concentrations up to 46 µM): no activity |
| Clc1ccc(COC(Cn2ccnc2)c2ccc(Cl)cc2Cl)cc1 (centres unmarked) [Econazole nitrate] | – | Inact. | – | – | – | – | – | – | – | Emax [1, 2]: 77%; Emax (E. rostratum conidia; [11]): 64% |
| CCCCCCCCCC(=O)NO [Decanohydroxamic acid] | Inact. | Inact. | – | – | – | – | – | – | Inact. | Hyphae % M. Res. [1, 3]: Inact.; Hyphae IC50 [1, 3]: Inact.; Conidia IC50 (E. rostratum conidia; [10]): Inact. |
| Cc1ccc2c(Br)cc(Br)c(O)c2n1 [Broquinaldol] | – | – | inact. | inact. | 7.75 µM | 101% | inact. | inact. | – | – |
| Cc1ccc(/C=N/n2c(-c3ccccc3)csc2=S)cc1 [Fezatione] | Inact. | Inact. | – | – | – | – | – | – | Inact. | Hyphae % M. Res. [1, 3]: Inact.; Hyphae IC50 [1, 3]: Inact.; Conidia IC50 (E. rostratum conidia; [10]): Inact. |
| Oc1c(Cl)cc(Cl)c(Cl)c1Cc1c(O)c(Cl)cc(Cl)c1Cl [Hexachlorophene] | – | – | inact. | inact. | – | – | inact. | inact. | – | IC50 (E. rostratum conidia; Exserohilum rostratum, 24 h): 3.97 µM; Emax (E. rostratum conidia; Exserohilum rostratum, read-out: Conidia % Max. Resp.): 109% |
| O=C(Nc1ccc(Br)cc1)c1cc(Br)cc(Br)c1O [Tribromosalan] | – | – | inact. | inact. | – | – | inact. | inact. | – | Conidia % Max. Resp. (E. rostratum conidia; [12]): 99%; IC50 (E. rostratum conidia; [13]): 1.93 µM |
| Sc1nc2ccccc2s1 [2-Mercaptobenzothiazole] | Inact. | Inact. | – | – | – | – | – | – | Inact. | Hyphae % M. Res. [1, 3]: Inact.; Hyphae IC50 [1, 3]: Inact.; Conidia IC50 (E. rostratum conidia; [10]): Inact. |
| CCCCCCOc1ccccc1C(N)=O [Exalamide] | Inact. | Inact. | – | – | – | – | – | – | Inact. | Hyphae % M. Res. [1, 3]: Inact.; Hyphae IC50 [1, 3]: Inact.; Conidia IC50 (E. rostratum conidia; [10]): Inact. |
| CC(C)N1CCN(c2ccc(OCC3COC(Cn4cncn4)(c4ccc(Cl)cc4Cl)O3)cc2)CC1 (centres unmarked) [Terconazole] | – | Inact. | – | – | 9.06 µM | 101% | inact. | inact. | Inact. | Emax [1, 14]: 100%; IC50 [1, 7]: 6.12 µM; Emax [1, 2]: 100%; Emax (E. rostratum conidia; [11]): 101% |
| Oc1c(Cl)cc(Cl)cc1Sc1cc(Cl)cc(Cl)c1O [Bithionol] | – | – | inact. | inact. | 1.87 µM | 100% | inact. | inact. | – | – |
| O=P(O)(O)OC(Cn1cncn1)(Cn1cncn1)c1ccc(F)cc1F [Fosfluconazole] | Inact. | Inact. | – | – | – | – | – | – | Inact. | Hyphae % M. Res. [1, 3]: Inact.; Hyphae IC50 [1, 3]: Inact.; Conidia IC50 (E. rostratum conidia; [10]): Inact. |
| N=C(N)c1ccc(OCCCCCOc2ccc(C(=N)N)cc2)cc1 [Pentamidine isethionate] | – | – | – | – | 1.11 µM | 108% | inact. | inact. | – | Emax [1, 14]: 82%; IC50 [1, 7]: 0.468 µM |
| CC(=O)[O][Hg][c]1ccccc1 [Phenylmercuric acetate] | – | – | inact. | inact. | – | – | 96% | 0.417% | – | Conidia % Max. Resp. (E. rostratum conidia; [12]): 99%; IC50 (E. rostratum conidia; [13]): 0.146 µM |
| C[CH2][Hg][S]c1ccccc1C(=O)[O-].[Na+] [Thimerosal] | – | – | inact. | inact. | – | – | 96% | 2.63% | – | Conidia % Max. Resp. (E. rostratum conidia; [12]): 102%; IC50 (E. rostratum conidia; [13]): 0.139 µM |
| Clc1ccc(C(Cn2ccnc2)OCc2ccsc2Cl)c(Cl)c1 (centres unmarked) [Tioconazole] | – | Inact. | – | – | 8.55 µM | 101% | inact. | inact. | Inact. | Emax [1, 14]: 100%; IC50 [1, 7]: 5.97 µM; Emax [1, 2]: 100%; Emax (E. rostratum conidia; [11]): 101% |
| Bleomycin sulfate | – | – | inact. | inact. | – | – | inact. | inact. | – | Conidia % Max. Resp. (E. rostratum conidia; [12]): 98%; IC50 (E. rostratum conidia): 1.24 µM |
| CC(=O)N1CCN(c2ccc(OCC3COC(Cn4ccnc4)(c4ccc(Cl)cc4Cl)O3)cc2)CC1 (centres unmarked) [Ketoconazole] | – | Inact. | – | – | 3.47 µM | 101% | inact. | inact. | Inact. | Emax [1, 14]: 74%; IC50 [1, 7]: 2.38 µM; Emax [1, 2]: 74%; Emax (E. rostratum conidia; [11]): 101% |
| CCC(C)(C)c1ccc(CC(C)CN2C[C@@H](C)O[C@@H](C)C2)cc1 (some centres unmarked) [Amorolfine] | – | – | – | – | 7.86 µM | 102% | inact. | inact. | – | Emax [1, 14]: 81%; IC50 [1, 7]: 4.51 µM |
